In brackets after ≈: the same amount, converted by molar mass. Values belong to the compound of their own block, whether it stands above or below them.
Experiments:
[1] = Geometrical average of minimum inhibitory concentration was determined in isosensitest broth against gram-positive strains.; type: functional
[2] = Geometrical average of minimum inhibitory concentration was determined in isosensitest broth against gram-negative strains.; type: functional
Alcaligenes [3] = experiment: Geometrical average of minimum bactericidal concentration was determined in isosensitest broth against Alcaligenes; type: functional
Alcaligenes [4] = experiment: Geometrical average of minimum inhibitory concentration was determined in isosensitest broth against Alcaligenes; type: functional
Bacillus [5] = experiment: Geometrical average of minimum bactericidal concentration was determined in isosensitest broth against Bacillus; type: functional
Escherichia coli [6] = experiment: Geometrical average of minimum bactericidal concentration was determined in isosensitest broth against Escherichia coli; type: functional
Escherichia coli [7] = experiment: Geometrical average of minimum inhibitory concentration was determined in isosensitest broth against Escherichia coli; type: functional
Escherichia coli [8] = experiment: In vivo protective dose was determined in infected swiss mice (120/strain) infected ip with Escherichia coli ISM with an inoculum size-0.5 mL of 10 E6 CFU/mL of suspension. Activity value range is 0.118-0.615; type: functional
Escherichia coli [9] = experiment: Minimum inhibitory concentration was determined against Escherichia coli ISM with an inoculum size-0.5 mL of 10 E6 CFU/mL of suspension; type: functional
Enterobacter [10] = experiment: Geometrical average of minimum bactericidal concentration was determined in isosensitest broth against Enterobacter; type: functional
Enterobacter [11] = experiment: Geometrical average of minimum inhibitory concentration was determined in isosensitest broth against Enterobacter; type: functional
Klebsiella [12] = experiment: Geometrical average of minimum bactericidal concentration was determined in isosensitest broth against Klebsiella; type: functional
Klebsiella [13] = experiment: Geometrical average of minimum inhibitory concentration was determined in isosensitest broth against Klebsiella; type: functional
Klebsiella pneumoniae [14] = experiment: In vivo protective dose was determined in infected swiss mice (120/strain) infected ip with Klebsiella pneumoniae 102 with an inoculum size-0.5 mL of 10 E5 CFU/mL of suspension. Activity value range is 1.82-7.92; type: functional
Klebsiella pneumoniae [15] = experiment: Minimum inhibitory concentration was determined against Klebsiella pneumoniae 102 with an inoculum size-0.5 mL of 10 E5 CFU/mL of suspension; type: functional
Neisseria perflava [16] = experiment: Geometrical average of minimum bactericidal concentration was determined in isosensitest broth against Neisseria perfl.; type: functional
Neisseria perflava [17] = experiment: Geometrical average of minimum inhibitory concentration was determined in isosensitest broth against Neisseria perfl.; type: functional
Pseudomonas [18] = experiment: Geometrical average of minimum bactericidal concentration was determined in isosensitest broth against Pseudomonas; type: functional
Pseudomonas [19] = experiment: Geometrical average of minimum inhibitory concentration was determined in isosensitest broth against Pseudomonas; type: functional
Proteus [20] = experiment: Geometrical average of minimum bactericidal concentration was determined in isosensitest broth against Proteus; type: functional, Proteus sp.
Proteus [21] = experiment: Geometrical average of minimum inhibitory concentration was determined in isosensitest broth against Proteus; type: functional, Proteus sp.
Sarcina [22] = experiment: Geometrical average of minimum bactericidal concentration was determined in isosensitest broth against Sarcina; type: functional
Sarcina [23] = experiment: Geometrical average of minimum inhibitory concentration was determined in isosensitest broth against Sarcina; type: functional
Salmonella [24] = experiment: Geometrical average of minimum bactericidal concentration was determined in isosensitest broth against Salmonella; type: functional
Salmonella [25] = experiment: Geometrical average of minimum inhibitory concentration was determined in isosensitest broth against Salmonella; type: functional
Streptococcus [26] = experiment: Geometrical average of minimum bactericidal concentration was determined in isosensitest broth against Streptococcus; type: functional
Streptococcus [27] = experiment: Geometrical average of minimum inhibitory concentration was determined in isosensitest broth against Streptococcus; type: functional
Serratia [28] = experiment: Geometrical average of minimum inhibitory concentration was determined in isosensitest broth against Serratia; type: functional
Staphylococcus [29] = experiment: (§1) Geometrical average of minimum inhibitory concentration was determined in isosensitest broth against Staphylococcus; type: functional
Staphylococcus [30] = experiment: (§2) Geometrical average of minimum bactericidal concentration was determined in isosensitest broth against Staphylococcus; type: functional
Staphylococcus [31] = experiment: as §2; type: functional; remark: listed apart in the source
Serratia [32] = experiment: Geometrical average of minimum bactericidal concentration was determined in isosensitest broth against Serratia; type: functional
[33] = Geometrical average of minimum inhibitory concentration was determined in isosensitest broth against, gram-positive strains.; type: functional
[34] = Geometrical average of minimum inhibitory concentration in isosensitest broth against, gram-negative strains.; type: functional
Staphylococcus [35] = experiment: as §1; type: functional; remark: listed apart in the source
Bacillus [36] = experiment: Geometrical average of minimum inhibitory concentration was determined in isosensitest broth against Bacillus; type: functional
Alcaligenes [37] = experiment: Geometrical average of minimum bactericidal concentration was determined in isosensitest against Alcaligenes; type: functional
Bacillus [38] = experiment: Geometrical average of minimum bactericidal concentration was determined in isosensitest against Bacillus; type: functional
Escherichia coli [39] = experiment: Geometrical average of minimum bactericidal concentration was determined in isosensitest broth against, Escherichia coli; type: functional
Escherichia coli [40] = experiment: In vivo protective dose was determined in infected swiss mice (120/strain) infected ip with Escherichia coli ISM with an inoculum size-0.5 mL of 10 E6 CFU/mL of suspension. Activity value range is 3.47-6.63; type: functional
Escherichia coli [41] = experiment: Minimum inhibitory concentration against, Escherichia coli ISM with an inoculum size-0.5 mL of 10 E6 CFU/mL of suspension); type: functional
Enterobacter [42] = experiment: Geometrical average of minimum bactericidal concentration was determined in isosensitest against Enterobacter; type: functional
Klebsiella pneumoniae [43] = experiment: In vivo protective dose was determined in infected swiss mice (120/strain) infected ip Klebsiella pneumoniae 102 with an inoculum size-0.5 mL of 10 E5 CFU/mL of suspension. Activity value range is 5.27-15.35; type: functional
Klebsiella pneumoniae [44] = experiment: Minimum inhibitory concentration against Klebsiella pneumoniae 102 with an inoculum size-0.5 mL of 10 E5 CFU/mL of suspension; type: functional
Neisseria perflava [45] = experiment: Geometrical average of minimum bactericidal concentration was determined in isosensitest against Neisseria perfl.; type: functional
Sarcina [46] = experiment: Geometrical average of minimum bactericidal concentration was determined in isosensitest against Sarcina; type: functional
Sarcina [47] = experiment: Geometrical average of minimum inhibitory concentration (MIC) in isosensitest broth against Sarcina; type: functional
Salmonella typhimurium [48] = experiment: Minimum inhibitory concentration against Salmonella Typhimurium T.O with an inoculum size-0.5 mL of 10 E6 CFU/mL of suspension; type: functional, Salmonella enterica subsp. enterica serovar Typhimurium; settings: Salmonella enterica
Streptococcus [49] = experiment: Geometrical average of minimum bactericidal concentration was determined in isosensitest against Streptococcus; type: functional
Staphylococcus [50] = experiment: (§3) Geometrical average of minimum bactericidal concentration was determined in isosensitest against Staphylococcus; type: functional
[51] = Geometrical average of minimum inhibitory concentration was determined in isosensitest broth against,gram-negative strains.; type: functional
Salmonella typhimurium [52] = experiment: In vivo protective dose was determined in infected swiss mice (120/strain) infected ip against Salmonella Typhimurium T.O with an inoculum size-0.5 mL of 10 E6 CFU/mL of suspension; type: functional, Salmonella enterica subsp. enterica serovar Typhimurium; settings: Salmonella enterica
Staphylococcus [53] = experiment: as §3; type: functional; remark: listed apart in the source

Compound: Cn1nnnc1SCC1=C(C(=O)O)N2C(=O)[C@@H](NC(=O)/C(=N/NC(N)=O)c3csc(N)n3)[C@H]2SC1
- MIC [1]: 76.5 µg/mL (≈ 142 µM)
- MIC [2]: 16.8 µg/mL (≈ 31.2 µM)

Compound: Cn1nnnc1SCC1=C(C(=O)O)N2C(=O)[C@@H](NC(=O)/C(=N\NC(N)=O)c3csc(N)n3)[C@H]2SC1
- MIC [1]: 18.6 µg/mL (≈ 34.6 µM)
- MIC [2]: 3.54 µg/mL (≈ 6.56 µM)

Compound: CO/N=C(\C(=O)N[C@@H]1C(=O)N2C(C(=O)O)=C(COC(C)=O)CS[C@H]12)c1csc(N)n1 [CEFOTAXIME]
- MBC (Alcaligenes [3]): 3.12 µg/mL (≈ 6.85 µM)
- MIC (Alcaligenes [4]): 1.56 µg/mL (≈ 3.43 µM)
- MBC (Bacillus [5]): 29.7 µg/mL (≈ 65.3 µM)
- MBC (Escherichia coli [6]): 0.25 µg/mL (≈ 0.549 µM)
- MIC (Escherichia coli [7]): 0.17 µg/mL (≈ 0.373 µM)
- ED50 (Escherichia coli [8]): 0.27 mg/kg
- MIC (Escherichia coli [9]): 0.55 µg/mL (≈ 1.21 µM)
- MBC (Enterobacter [10]): 1.97 µg/mL (≈ 4.33 µM)
- MIC (Enterobacter [11]): 0.31 µg/mL (≈ 0.681 µM)
- MBC (Klebsiella [12]): 0.14 µg/mL (≈ 0.307 µM)
- MIC (Klebsiella [13]): 0.12 µg/mL (≈ 0.263 µM)
- ED50 (Klebsiella pneumoniae [14]): 3.8 mg/kg
- MIC (Klebsiella pneumoniae [15]): 0.13 µg/mL (≈ 0.285 µM)
- MBC (Neisseria perflava [16]): < 0.09 µg/mL
- MIC (Neisseria perflava [17]): < 0.09 µg/mL
- MBC (Pseudomonas [18]): 22.3 µg/mL (≈ 48.9 µM)
- MIC (Pseudomonas [19]): 21.8 µg/mL (≈ 47.9 µM)
- MBC (Proteus [20]): 0.3 µg/mL (≈ 0.659 µM)
- MIC (Proteus [21]): 0.08 µg/mL (≈ 0.176 µM)
- MBC (Sarcina [22]): 0.04 µg/mL (≈ 0.0878 µM)
- MIC (Sarcina [23]): 0.04 µg/mL (≈ 0.0878 µM)
- MBC (Salmonella [24]): 0.38 µg/mL (≈ 0.834 µM)
- MIC (Salmonella [25]): 0.24 µg/mL (≈ 0.527 µM)
- MBC (Streptococcus [26]): 35.4 µg/mL (≈ 77.6 µM)
- MIC (Streptococcus [27]): 12.3 µg/mL (≈ 27.1 µM)
- MIC (Serratia [28]): 0.09 µg/mL (≈ 0.198 µM)
- MIC (Staphylococcus [29]): 1.61 µg/mL (≈ 3.53 µM)
- MBC (Staphylococcus [30]): 25 µg/mL (≈ 54.9 µM)
- MBC (Staphylococcus [31]): 3.23 µg/mL (≈ 7.09 µM)
- MBC (Serratia [32]): 0.49 µg/mL (≈ 1.08 µM)
- MIC [33]: 2.09 µg/mL (≈ 4.59 µM)
- MIC [34]: 0.17 µg/mL (≈ 0.373 µM)
- MIC (Staphylococcus [35]): 5.25 µg/mL (≈ 11.5 µM)
- MIC (Bacillus [36]): 25 µg/mL (≈ 54.9 µM)

Compound: CO/N=C(\C(=O)N[C@@H]1C(=O)N2C(C(=O)O)=C(COC(N)=O)CS[C@H]12)c1ccco1 [CEFUROXIME]
- MBC (Alcaligenes [37]): 100 µg/mL (≈ 236 µM)
- MIC (Alcaligenes [4]): 50 µg/mL (≈ 118 µM)
- MBC (Bacillus [38]): 35.4 µg/mL (≈ 83.3 µM)
- MBC (Escherichia coli [39]): 4.42 µg/mL (≈ 10.4 µM)
- MIC (Escherichia coli [7]): 2.2 µg/mL (≈ 5.18 µM)
- ED50 (Escherichia coli [40]): 4.8 mg/kg
- MIC (Escherichia coli [41]): 2.2 µg/mL (≈ 5.18 µM)
- MBC (Enterobacter [42]): 25 µg/mL (≈ 58.9 µM)
- MIC (Enterobacter [11]): 7.01 µg/mL (≈ 16.5 µM)
- MBC (Klebsiella [12]): 4.68 µg/mL (≈ 11 µM)
- MIC (Klebsiella [13]): 3.71 µg/mL (≈ 8.74 µM)
- ED50 (Klebsiella pneumoniae [43]): 9 mg/kg
- MIC (Klebsiella pneumoniae [44]): 12.5 µg/mL (≈ 29.5 µM)
- MBC (Neisseria perflava [45]): 0.78 µg/mL (≈ 1.84 µM)
- MIC (Neisseria perflava [17]): 0.39 µg/mL (≈ 0.919 µM)
- MBC (Pseudomonas [18]): > 100 µg/mL
- MIC (Pseudomonas [19]): > 100 µg/mL
- MBC (Proteus [20]): 3.9 µg/mL (≈ 9.19 µM)
- MIC (Proteus [21]): 1.97 µg/mL (≈ 4.64 µM)
- MBC (Sarcina [46]): 0.55 µg/mL (≈ 1.3 µM)
- MIC (Sarcina [47]): 0.39 µg/mL (≈ 0.919 µM)
- MBC (Salmonella [24]): 6.7 µg/mL (≈ 15.8 µM)
- MIC (Salmonella typhimurium [48]): 1.56 µg/mL (≈ 3.68 µM)
- MIC (Salmonella [25]): 3.12 µg/mL (≈ 7.35 µM)
- MIC (Streptococcus [27]): 15.1 µg/mL (≈ 35.7 µM)
- MBC (Streptococcus [49]): 59.5 µg/mL (≈ 140 µM)
- MIC (Serratia [28]): 12.4 µg/mL (≈ 29.2 µM)
- MIC (Staphylococcus [29]): 1.06 µg/mL (≈ 2.5 µM)
- MBC (Serratia [32]): 28 µg/mL (≈ 66 µM)
- MBC (Staphylococcus [50]): 1.67 µg/mL (≈ 3.94 µM)
- MIC [33]: 1.11 µg/mL (≈ 2.62 µM)
- MIC [51]: 10.6 µg/mL (≈ 25.1 µM)
- MIC (Staphylococcus [35]): 10.5 µg/mL (≈ 24.8 µM)
- MIC (Bacillus [36]): 35.4 µg/mL (≈ 83.3 µM)
- ED50 (Salmonella typhimurium [52]): > 90 mg/kg
- MBC (Staphylococcus [53]): 17.7 µg/mL (≈ 41.7 µM)

Further compounds by falling MIC [1], results first:

- MIC [1]: 18 µg/mL (≈ 32.5 µM)
- MIC [2]: 8.59 µg/mL (≈ 15.5 µM)
Compound: Cn1nnnc1SCC1=C(C(=O)O)N2C(=O)[C@@H](NC(=O)/C(=N/NCC(=O)O)c3csc(N)n3)[C@H]2SC1

- MIC [1]: 13.2 µg/mL (≈ 22.7 µM)
- MIC [2]: 5.45 µg/mL (≈ 9.35 µM)
Compound: CCOC(=O)CN/N=C(/C(=O)N[C@@H]1C(=O)N2C(C(=O)O)=C(CSc3nnnn3C)CS[C@H]12)c1csc(N)n1

- MIC [1]: 7.35 µg/mL (≈ 16.7 µM)
- MIC [2]: 1.96 µg/mL (≈ 4.45 µM)
Compound: CC(=O)OCC1=C(C(=O)O)N2C(=O)[C@@H](NC(=O)/C(=N/N)c3csc(N)n3)[C@H]2SC1

Source: ChEMBL document CHEMBL1123730, “Synthesis and pharmacological evaluation of a new class of 2-(2-aminothiazol-4-yl)-2-hydrazonoacetamido cephalosporins” (J Med Chem, 1987)
